Results taken from patent US5141934A, “Tetracyclic amines having pharmaceutical activity” (Warner-Lambert Company, priority 1990, dated 1992).

Target: phencyclidine (PCP) receptors (noncompetitive NMDA antagonist binding site)
Assay: Tritiated 1[1-(2 thienyl)cyclohexyl]piperidine (TCP) binding, designated RBS1
Conditions: Table 1, read-out: RBSI IC50
Experimental: The ability of the compounds of the instant invention to interact with phencyclidine (PCP) receptors which represents a noncompetitive NMDA antagonist binding site, is shown in Table 1. Tritiated 1[1-(2 thienyl)cyclohexyl]piperidine (TCP) binding, designated RBS1, was carried out essentially as described in J. Pharmacol. Exp. Ther., 238, 739 (1986).

c1ccc2c(c1)C[C@H]1CN[C@@]23CCCC[C@@H]13 (relative stereo) [Example 14, (+/-)-(4aα,10α,10aα) 1,3,4,9,10,10a Hexahydro-2H-4a,10-(iminomethano)phenanthrene]
IC50: 86 nM

CN1C[C@@H]2Cc3ccccc3[C@]13CCCC[C@@H]23 (relative stereo) [Example 16, (+/-)-(4aα,10α,10aα) 1,3,4,9,10,10a-Hexahydro-12-methyl-2H 4a,10-(iminomethano)phenanthrene]
IC50: 137 nM

CCCN1C[C@@H]2Cc3ccccc3[C@]13CCCC[C@@H]23 (relative stereo) [Example 19, (+/-)-(4aα,10α,10aα)-1,3,4,9,10,10a-Hexahydro-12-propyl-2H-4a,10-(iminomethano)phenanthrene]
IC50: 54 nM

c1ccc2c(c1)C[C@H]1CN(CC3CC3)[C@@]23CCCC[C@@H]13 (relative stereo) [Example 20, (+/-)-(4aα,10α,10aα)-12-(Cyclopropylmethyl)-1,3,4,9,10,10a-hexahydro-2H-4a,10-(iminomethano)-phenanthrene]
IC50: 51 nM

c1ccc(C2(N3CCCCC3)CCCCC2)cc1 [PCP, phencyclidine]
IC50: 40 nM

c1csc(C2(N3CCCCC3)CCCCC2)c1 [TCP, 1[1-(2 thienyl)cyclohexyl]piperidine]
IC50: 9 nM
